Experimental data: patent US20030103863A1, “High pressure sterilising of sensitive active principles” (priority 2000, published 2003)

How the values were obtained:
[1] = HPLC purity after high pressure treatment; format: physicochemical; details: powder, high pressure treatment at 5,000 bars
Method: Complementary tests were conducted to show the harmlessness of the treatment by high pressure on the fragile elements. In this case, these elements were placed in solution or in the form of powder.
a) The peptide, in this case Gramicidin, is subjected to a high pressure treatment at 5,000 bars, and its purity was also tested by HPLC, the variations remaining less than 1%. The high pressures have no influence on the structure.

[2] = HPLC chromatography of insulin after high pressure treatment; format: physicochemical; details: 4,000, 5,000 and 6,000 bars for 10 minutes, ambient temperature and −20° C.; analyzed at 214 nm
Method: b) Insulin was selected at 40 UI, commercial form, and diluted to {fraction (1/100 )} at pH 2.5. For the measurement, passage is carried out with a flow rate of 1 ml/min in an HPLC (High Pressure Liquid Chromatography) apparatus.
Different specimens were subjected, at ambient temperature and at a negative temperature of −20° C., to:
atmospheric pressure for the standard,
5,000 bars for 10 minutes, and
The specimens, after treatment, are then analyzed at 214 nm in a chromatographic apparatus with automatic injection.

Row | Substance | variations of purity by HPLC [1] | modifications or alterations of the structure (HPLC curves vs standard at atmospheric pressure) [2]
1 | gramicidin | less than 1% | –
2 | insulin | – | no noticeable modifications or alterations
